Values after ≈ are worked out from the molar mass of the structure shown. Active and inactive are the calls of the source. The calls are words filed in the database; no cut-off is given here.
Experiments:
[1] = Lipophilicity, log D of the compound at pH 7.4; format: physicochemical; conditions: buffer
[2] = Metabolic stability in human liver microsomes assessed as half life incubated for 5 to 30 mins by HPLC-MS/MS analysis; format: ADME, Microsome; conditions: microsomes, time 5-30 min
[3] = Metabolic stability in human liver assessed as intrinsic clearance incubated for 5 to 30 mins by HPLC-MS/MS analysis; format: ADME, tissue-based; conditions: liver (preparation not stated), time 5-30 min, read-out: CLH
[4] = Metabolic stability in human liver microsomes assessed as parent compound remaining measured at 60 mins by HPLC-MS/MS analysis; format: ADME, Microsome; conditions: 1 h
[5] = Solubility of compound in aqueous buffer at pH 7.4; format: physicochemical
[6] = target: T1, Nuclear receptor ROR-beta (Homo sapiens, UniProt Q92753); test: Inhibition of human GAL4-fused RORbeta LBD transfected in HEK293T cell measured for 16 to 20 hrs by dual-glo luciferase assay; format: cell-based
T1 sequence (Q92753 whole entry): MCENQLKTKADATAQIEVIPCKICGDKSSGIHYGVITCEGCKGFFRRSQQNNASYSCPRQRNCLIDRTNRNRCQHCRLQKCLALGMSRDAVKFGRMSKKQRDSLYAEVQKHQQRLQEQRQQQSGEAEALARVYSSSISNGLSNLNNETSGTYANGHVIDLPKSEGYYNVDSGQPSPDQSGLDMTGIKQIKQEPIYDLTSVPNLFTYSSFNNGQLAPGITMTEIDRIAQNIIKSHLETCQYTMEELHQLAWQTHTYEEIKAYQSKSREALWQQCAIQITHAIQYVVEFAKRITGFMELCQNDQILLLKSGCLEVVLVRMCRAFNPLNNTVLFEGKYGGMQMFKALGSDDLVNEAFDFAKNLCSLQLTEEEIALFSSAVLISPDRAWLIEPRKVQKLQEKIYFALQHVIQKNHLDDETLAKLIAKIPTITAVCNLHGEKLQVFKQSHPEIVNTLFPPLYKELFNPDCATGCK

[7] = Half life in mouse at 0.3 mg/kg, iv measured at 2 to 1440 mins by LC-MS analysis; format: ADME, organism-based; conditions: in vivo, time 2-1440 min
[8] = Half life in mouse at 1 mg/kg, po measured at 5 to 1440 mins by LC-MS analysis; format: ADME, organism-based; conditions: in vivo, time 5-1440 min
[9] = Tmax in mouse at 0.3 mg/kg, iv measured at 2 to 1440 mins by LC-MS analysis; format: ADME, organism-based; conditions: in vivo, time 2-1440 min
[10] = Tmax in mouse at 1 mg/kg, po measured at 5 to 1440 mins by LC-MS analysis; format: ADME, organism-based; conditions: in vivo, time 5-1440 min
[11] = Cmax in mouse at 0.3 mg/kg, iv measured at 2 to 1440 mins by LC-MS analysis; format: ADME, organism-based; design: time 2-1440 min, dose 0.3 mg/kg, route iv; conditions: in vivo
[12] = Cmax in mouse at 1 mg/kg, po measured at 5 to 1440 mins by LC-MS analysis; format: ADME, organism-based; design: time upper 1440 min, time lower 5 min, dose 1 mg/kg, route po; conditions: in vivo
[13] = Volume of distribution at steady state in mouse at 0.3 mg/kg, iv measured at 2 to 1440 mins by LC-MS analysis; format: ADME, organism-based; conditions: in vivo, time 2-1440 min, read-out: Vdss
[14] = Clearance in mouse at 0.3 mg/kg, iv measured at 2 to 1440 mins by LC-MS analysis; format: ADME, organism-based; conditions: in vivo, time 2-1440 min
[15] = AUC (0 to t) in mouse at 0.3 mg/kg, iv measured at 2 to 1440 mins by LC-MS analysis; format: ADME, organism-based; design: time lower 2 min, dose 0.3 mg/kg, time upper 1440 min, route iv; conditions: in vivo
[16] = AUC (0 to t) in mouse at 1 mg/kg, po measured at 5 to 1440 mins by LC-MS analysis; format: ADME, organism-based; design: time 5-1440 min, dose 1 mg/kg, route po; conditions: in vivo
[17] = AUC (0 to infinity) in mouse at 0.3 mg/kg, iv measured at 2 to 1440 mins by LC-MS analysis; format: ADME, organism-based; design: dose 0.3 mg/kg, time 2-1440 min, route iv; conditions: in vivo
[18] = AUC (0 to infinity) in mouse at 1 mg/kg, po measured at 5 to 1440 mins by LC-MS analysis; format: ADME, organism-based; design: dose 1 mg/kg, time 5-1440 min, route po; conditions: in vivo
[19] = Oral bioavailability in mouse at 1 mg/kg measured at 5 to 1440 mins by LC-MS analysis; format: ADME, organism-based; conditions: in vivo, time 5-1440 min
[20] = system: Mus musculus; test: Antiinflammatory activity against imiquimod-induced Balb/c mouse skin inflammation model assessed as decrease in erythema at 5 to 20 mg/kg, po BID for 13 days; format: functional, organism-based; conditions: dose 5-20 mg/kg, time 13.0 day
[21] = system: Mus musculus; test: Antiinflammatory activity against imiquimod-induced Balb/c mouse skin inflammation model assessed as reduction in scaling at 5 to 20 mg/kg, po BID for 13 days; format: functional, organism-based; conditions: dose 5-20 mg/kg, time 13.0 day
[22] = system: Mus musculus; test: Antiinflammatory activity against imiquimod-induced Balb/c mouse skin inflammation model assessed as reduction in skin thickening at 5 to 20 mg/kg, po BID for 13 days; format: functional, organism-based; conditions: dose 5-20 mg/kg, time 13.0 day
[23] = system: Mus musculus; test: Antiinflammatory activity against imiquimod-induced Balb/c mouse skin inflammation model assessed as reduction in total psoriasis area at 20 mg/kg, po BID for 13 days; format: functional, organism-based; conditions: time 13.0 day
[24] = system: Mus musculus; test: Antiinflammatory activity against imiquimod-induced Balb/c mouse skin inflammation model assessed as reduction in severity index score at 20 mg/kg, po BID for 13 days; format: functional; design: scale not given: the % may be the effect or the level left; conditions: time 13 day
[25] = system: Mus musculus; test: Antiinflammatory activity against imiquimod-induced Balb/c mouse skin inflammation model assessed as inhibition of IL-17A level at 20 mg/kg, po measured for 13 days; format: functional; design: scale not given: the % may be the effect or the level left; conditions: time 13 day
[26] = system: Mus musculus; test: Antiinflammatory activity against imiquimod-induced Balb/c mouse skin inflammation model assessed as inhibition of IL-6 level at 20 mg/kg, po measured for 13 days; format: functional; design: scale not given: the % may be the effect or the level left; conditions: time 13 day
[27] = Toxicity in Balb/c mouse assessed as body weight loss at 5 to 20 mg/kg, po administered for 12 days; format: organism-based; conditions: in vivo, 288 h, dose 5-20 mg/kg, time 12 day
[28] = Toxicity in Balb/c mouse assessed as inflammatory cell infiltration at 10 to 20 mg/kg, po administered for 13 days; format: organism-based; conditions: in vivo, 312 h, dose 10-20 mg/kg, time 13 day
[29] = system: Mus musculus; test: Antiinflammatory activity against imiquimod-induced Balb/c mouse skin inflammation model assessed as decrease in skin thickening at 10 to 20 mg/kg, po measured for 13 days; format: functional, organism-based; conditions: dose 10-20 mg/kg, time 13.0 day

logD [1]: 3.69
t1/2 [2]: 0.817 h
CLint scaled [3]: 27.1 mL/min/kg
Stability [4]: 45.1%
solubility [5]: 8.68 µg/mL (≈ 18.4 µM)
IC50 [6]: > 10 µM
half-life [7]: 0.87 h
half-life [8]: 1.32 h
Tmax [9]: 1.52 h
Tmax [10]: 2.32 h
Cmax [11]: 83 ng/mL
Cmax [12]: 94 ng/mL
Vd [13]: 1.54 L/kg
clearance [14]: 38.6 mL/min/kg
AUC(0-t) [15]: 153 ng·h/mL
AUC(0-t) [16]: 285 ng·h/mL
AUC(0-inf) [17]: 163 ng·h/mL
AUC(0-inf) [18]: 298 ng·h/mL
bioavailability [19]: 55%
SMILES: CCc1ccc(N(C2CCC2)S(=O)(=O)c2ccc3c(c2)C(O)CC(C2CCOCC2)O3)cc1 (centres undefined)
Activity [20]: Active
Activity [21]: Active
Activity [22]: Active
Activity [23]: Active
Activity [24]: 70.5%
Activity [25]: 37.6%
Activity [26]: 71.9%
Activity [27]: Non-Toxic
Activity [28]: Non-Toxic
Activity [29]: inactive

— ChEMBL document CHEMBL5226347, “Discovery of Chromane-6-Sulfonamide Derivative as a Potent, Selective, and Orally Available Novel Retinoic Acid Receptor-Related Orphan Receptor γt Inverse Agonist” (J Med Chem, 2021)
